Data reported in article PMC6471177 (Pharmaceutics, 2019).

Tests used:
P-gp = biological target: T1, P-gp (Homo sapiens, UniProt P08183); test: Intracellular accumulation of docetaxel in Caco-2 cells (P-gp inhibition); type: cell-based
T1 construct: They were allowed to grow to confluence for 5 days to obtain higher expressions of P-gp; endogenous in cells; host or cells: Caco-2

[1] = LC478 concentration in intestine after oral administration and [I]/IC50 prediction; type: in vivo; details: our unpublished data
Experimental: Concentration of LC478 was determined using a HPLC-UV system. A 50 µL aliquot of acetonitrile was added to a 50 µL aliquot of biological sample. After vortex-mixing and centrifugation, the supernatant was evaporated (Dry Thermo Bath MG-2200, Eyela, Tokyo, Japan) under a soft stream of nitrogen gas at 50 °C. The residue was reconstituted in 60 µL mobile phase and a 50 µL aliquot of the supernatant was loaded onto a reverse-phase C18 column (SunFireTM; 150 mm. ℓ. × 4.6 mm. i.d.; particle size, 5 µm; Waters, Milford, MA, USA). […]. The retention time of LC478 was approximately 7.8 min, and the quantitation limit was 0.1 µg/mL.

[2] = Disappearance of docetaxel in rat intestinal microsomes with LC478; type: in vitro ADME; details: rat intestinal microsomes, LC478 1, 5, 10 µM
Experimental: (§1) The hepatic and intestinal microsomes were prepared based on a similar reported method.
(§2) Adding 0.1 M phosphate buffer (pH 7.4) adjusted the total volume as 0.5 mL, and then the components were incubated at 37 °C using a thermomixer at 500 opm. After incubation of 15 and 30 min for the hepatic and intestinal microsomes, respectively, 1 mL of acetonitrile with 5 µg/mL of paclitaxel as an internal standard added to terminate the reaction.
(§3) The unweighted kinetic data from rat hepatic and intestinal microsomes were fitted using a single-site Michaelis–Menten Equation V = Vmax × [S]/(Km + [S])(4) where [S] is the substrate concentration, Vmax is maximal velocity, and Km is substrate concentration for half-maximal velocity. The CLint was calculated by dividing the Vmax by the Km.

[3] = MTT cell viability assay in Caco-2 cells; type: cell-based; details: human; Caco-2 cells, 0.001 to 100 µM, 24 h, MTT
Experimental: (§4) Caco-2 cells were obtained from the Korean Cell Line Bank (Seoul, Korea). The cells were maintained in Dulbecco’s modified Eagle’s medium (DMEM) supplemented with 10% fetal bovine serum, 1% non-essential amino acids, and 100 U/mL penicillin and gentamicin at 37 °C in a humidified 5% CO2 atmosphere.
(§5) The effect of LC478 on cell viability was assessed by an MTT assay. LC478 was dissolved in diluted in 100% dimethyl sulfoxide (DMSO) and diluted with cell culture media. Caco-2 cells were seeded in 96-well plates at 1 × 10^5 cells/mL. A 100 μL of LC478 in cell culture media was treated on the plates to achieve final concentration of LC478 in the ranges of 0.001 to 100 μM, which was incubated for 24 h. After adding 10 μL/well of MTT ([…]) and incubating them for 24 h, the supernatants of the cultures were removed and replaced with 100 μL of DMSO. The cell viability rate (%) was calculated as the absorbance of treated cells divided by that of control cells. The viability of the control cells was defined as 100%.

Caco-2 cells = test: MTT cell viability assay in Caco-2 cells; type: cell-based; details: even at 100 µM, 24 h incubation
Experimental: as §4, §5

[4] = Disappearance of docetaxel in rat hepatic microsomes with LC478; type: in vitro ADME; details: rat hepatic microsomes, LC478 1, 5, 10 µM
Experimental: as §1, §2, §3

[5] = Rat plasma protein binding of docetaxel by equilibrium dialysis; type: in vitro ADME; details: LC478 0.1 and 10 μg/mL
Experimental: A 1 mL of the plasma was dialyzed against 1 mL of isotonic Sørensen phosphate buffer (pH 7.4) containing 3% dextran (w/v) in a dialysis cell (Spectrum Medical Industries, Laguna Hills, CA, USA) using a Spectra/Por 4 membrane (mol. wt. cutoff 12−14 KDa; Spectrum Medical Industries, USA).

[6] = tested on: P-gp overexpressing MES-SA/DX5 sarcoma cells; details: cited from earlier work

T1 sequence (P08183 whole entry): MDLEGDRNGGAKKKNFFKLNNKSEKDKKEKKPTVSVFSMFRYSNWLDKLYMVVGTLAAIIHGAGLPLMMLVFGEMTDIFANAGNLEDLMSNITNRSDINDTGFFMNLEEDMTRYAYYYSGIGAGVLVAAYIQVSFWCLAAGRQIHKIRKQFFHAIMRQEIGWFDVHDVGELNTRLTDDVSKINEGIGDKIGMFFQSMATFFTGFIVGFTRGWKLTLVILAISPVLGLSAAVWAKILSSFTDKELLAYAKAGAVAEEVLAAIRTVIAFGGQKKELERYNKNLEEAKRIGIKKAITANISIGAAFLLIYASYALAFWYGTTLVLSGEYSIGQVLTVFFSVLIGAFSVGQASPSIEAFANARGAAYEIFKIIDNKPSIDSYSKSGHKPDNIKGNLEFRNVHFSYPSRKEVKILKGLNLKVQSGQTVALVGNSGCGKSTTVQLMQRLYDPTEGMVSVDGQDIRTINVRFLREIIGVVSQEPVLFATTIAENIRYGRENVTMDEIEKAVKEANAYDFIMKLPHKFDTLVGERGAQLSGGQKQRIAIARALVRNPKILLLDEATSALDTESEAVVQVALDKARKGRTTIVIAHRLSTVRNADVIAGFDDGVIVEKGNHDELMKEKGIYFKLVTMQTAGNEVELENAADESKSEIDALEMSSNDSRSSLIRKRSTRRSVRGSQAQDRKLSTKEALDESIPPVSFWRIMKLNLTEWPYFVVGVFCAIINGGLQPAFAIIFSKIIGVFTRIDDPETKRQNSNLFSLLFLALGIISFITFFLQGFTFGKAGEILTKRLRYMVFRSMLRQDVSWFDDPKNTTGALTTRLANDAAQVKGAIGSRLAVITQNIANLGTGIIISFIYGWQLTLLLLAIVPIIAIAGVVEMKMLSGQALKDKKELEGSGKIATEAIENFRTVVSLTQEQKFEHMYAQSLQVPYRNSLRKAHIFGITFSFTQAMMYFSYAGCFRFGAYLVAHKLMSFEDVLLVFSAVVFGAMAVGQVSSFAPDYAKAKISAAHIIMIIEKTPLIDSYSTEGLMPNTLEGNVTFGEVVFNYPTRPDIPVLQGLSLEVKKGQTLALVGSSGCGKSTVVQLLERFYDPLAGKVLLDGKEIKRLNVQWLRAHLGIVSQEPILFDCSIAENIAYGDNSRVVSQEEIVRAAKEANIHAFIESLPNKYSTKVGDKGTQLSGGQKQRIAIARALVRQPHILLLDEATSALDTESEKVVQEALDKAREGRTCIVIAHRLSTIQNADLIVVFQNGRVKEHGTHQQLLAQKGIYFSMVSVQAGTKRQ

For `COC(=O)c1cccc(NC(=O)COc2ccc(C34CC5CC(CC(C(=O)N6CCN(Cc7ccc(C(F)(F)F)cc7)CC6)(C5)C3)C4)cc2)c1` [LC478], which IC50 (P-gp) is on record?
Its IC50 is 601 nM.

What about the “LC478 concentration in the intestine” value ([1]; after oral administration of 30 mg/kg LC478) of the same compound?
Its value is 3.25 to 5.18 µM.

What about the “LC478 concentration in the intestine” value ([1]; after oral administration of 100 mg/kg LC478) of the same compound?
The value was 9.37 to 12.3 µM.

And the “effect on intestinal metabolism of docetaxel” value [2]?
The value was “not inhibited”.

And the viability at 24 h [3]?
The viability at 24 h was 97 to 100%.

What about the “toxicity to Caco-2 cells” value (Caco-2 cells) of the same compound?
The value was “not toxic”.

What about the “effect on hepatic metabolism of docetaxel” value [4] of the same compound?
The value was “not inhibited”.

What about the “effect on protein binding of docetaxel in rat plasma” value [5] of the same compound?
The value was “did not affect”.

What about the “effect on P-gp mediated efflux of paclitaxel” value [6] of the same compound?
Its value is “reversed P-gp mediated efflux activity”.

And the intrinsic cytotoxicity [6]?
Its intrinsic cytotoxicity is “without intrinsic cytotoxicity”.
